In US20230181801A1, “MOLECULAR IODINE-INFUSED POLYMERS, ARTICLES, AND PRODUCTS, AND THEIR PREPARATION AND USE” (I2PURE CORP., priority 2021, published 2023):

Legend:
[1] = Stability of molecular iodine in solvent at room temperature; assay type: physicochemical; settings: in ethanol, 15 days at room temperature in the dark
[2] = room temperature; cited from earlier work

II [I2, molecular iodine]
loss of molecular iodine [1]: over 15% | maximum solubility in water [2]: 332 ppm
